# Reference: patent US6342537B1, “Gel for treatment of skin diseases and for disinfection of the skin” (priority 1994, dated 2002)
# “And” between values parts separate entries of the source, which are not always exact repeats. Equal entries are not always repeated.
# Tested on: herpes simplex virus (HSV) type 1
# Assay: Inactivation of herpes simplex virus in infected MRC-5 cells by alcohols (Example 25); for HSV - CPE after 44 hours with the detecting cell-layer: key: 0: no CPE; 1: a few; 2: several; 3: all cells infected with HSV
# Assay type: cell-based
# Conditions: for HSV - CPE after 44 hours with the detecting cell-layer: duplicate wells; for inactivation of herpes simplex virus (in words): HSV type 1 infected MRC-5 cells
# Description: Ethanol is an accepted disinfectant for viruses with an envelope. The purpose of this study was to measure the inactivating effect of “short-chained alcohols” on virus-infected cells.
# Four 96 well plates with confluent MRC-5 cell were infected with herpes simplex virus (HSV) type 1. After appearance of 50% cytopathic effect (CPE), the culture medium was removed, and rows of 12 wells were treated with 25 μl/well of the alcohols or buffer after the following scheme: The first row with undiluted, and the following with 96%, 90%, 80%, 70%, 60% and 50% alcohol, respectively—all dilutions performed in buffer (PBS). To the last row was added buffer. After 2, 4, 8, 16 and 32 min, respectively, two wells in each row were emptied and the cells overlaid with PBS. The plate was then frozen at —80° C. Afterwards the wells were seeded with a detection layer of MRC-5 cells and the plates were placed at 37° C. for 44 hours. Virus surviving the treatment with alcohol was detected by the appearance of CPE, characteristic for HSV in the detection monolayer.
# [1] = alcohol undiluted, 2 min with alcohol
Molecule,"HSV - CPE after 44 hours with the detecting cell-layer (50% alcohol in PBS, 2 min)","HSV - CPE after 44 hours with the detecting cell-layer (50% alcohol in PBS, 4 min)","HSV - CPE after 44 hours with the detecting cell-layer (50% alcohol in PBS, 8 min)","HSV - CPE after 44 hours with the detecting cell-layer (50% alcohol in PBS, 16 min)","HSV - CPE after 44 hours with the detecting cell-layer (50% alcohol in PBS, 32 min)","HSV - CPE after 44 hours with the detecting cell-layer (60% alcohol in PBS, 2 min)","HSV - CPE after 44 hours with the detecting cell-layer (60% alcohol in PBS, 4 min)","HSV - CPE after 44 hours with the detecting cell-layer (60% alcohol in PBS, 8 min)","HSV - CPE after 44 hours with the detecting cell-layer (60% alcohol in PBS, 16 min)","HSV - CPE after 44 hours with the detecting cell-layer (60% alcohol in PBS, 32 min)","HSV - CPE after 44 hours with the detecting cell-layer (70% alcohol in PBS, 2 min)","HSV - CPE after 44 hours with the detecting cell-layer (70% alcohol in PBS, 4 min)","HSV - CPE after 44 hours with the detecting cell-layer (70% alcohol in PBS, 8 min)","HSV - CPE after 44 hours with the detecting cell-layer (70% alcohol in PBS, 16 min)","HSV - CPE after 44 hours with the detecting cell-layer (70% alcohol in PBS, 32 min)","HSV - CPE after 44 hours with the detecting cell-layer (80% alcohol in PBS, 2 min)","HSV - CPE after 44 hours with the detecting cell-layer (80% alcohol in PBS, 4 min)","HSV - CPE after 44 hours with the detecting cell-layer (80% alcohol in PBS, 8 min)","HSV - CPE after 44 hours with the detecting cell-layer (80% alcohol in PBS, 16 min)","HSV - CPE after 44 hours with the detecting cell-layer (80% alcohol in PBS, 32 min)",other results
Butanol,0 and 2,2,2,0,1 and 0,0 and 2,2,2 and 0,0,1 and 0,0,0 and 1,1 and 0,0 and 1,1,0,0 and 1,1 and 0,0,1 and 0,"HSV - CPE after 44 hours with the detecting cell-layer (90% alcohol in PBS, 2 min): 0; HSV - CPE after 44 hours with the detecting cell-layer (90% alcohol in PBS, 4 min): 0 and 1; HSV - CPE after 44 hours with the detecting cell-layer (90% alcohol in PBS, 8 min): 0; HSV - CPE after 44 hours with the detecting cell-layer (90% alcohol in PBS, 16 min): 1 and 0; HSV - CPE after 44 hours with the detecting cell-layer (90% alcohol in PBS, 32 min): 0 and 3; HSV - CPE after 44 hours with the detecting cell-layer (96% alcohol in PBS, 2 min): 0; HSV - CPE after 44 hours with the detecting cell-layer (96% alcohol in PBS, 4 min): 0; HSV - CPE after 44 hours with the detecting cell-layer (96% alcohol in PBS, 8 min): 0 and 2; HSV - CPE after 44 hours with the detecting cell-layer (96% alcohol in PBS, 16 min): 0; HSV - CPE after 44 hours with the detecting cell-layer (96% alcohol in PBS, 32 min): 0; inactivation of herpes simplex virus (in words): able to inactivate herpes simplex virus even intracellular virus; HSV - CPE after 44 hours with the detecting cell-layer [1]: 0; HSV - CPE after 44 hours with the detecting cell-layer (alcohol undiluted, 4 min): 0; HSV - CPE after 44 hours with the detecting cell-layer (alcohol undiluted, 8 min): 0; HSV - CPE after 44 hours with the detecting cell-layer (alcohol undiluted, 16 min): 0; HSV - CPE after 44 hours with the detecting cell-layer (alcohol undiluted, 32 min): 0"
CCO [Ethanol],3,3,3,3,3,3,3,3,3,3,3,3,3,3,3,2,2,2,2,2,"HSV - CPE after 44 hours with the detecting cell-layer (90% alcohol in PBS, 2 min): 1; HSV - CPE after 44 hours with the detecting cell-layer (90% alcohol in PBS, 4 min): 1 and 0; HSV - CPE after 44 hours with the detecting cell-layer (90% alcohol in PBS, 8 min): 0; HSV - CPE after 44 hours with the detecting cell-layer (90% alcohol in PBS, 16 min): 0; HSV - CPE after 44 hours with the detecting cell-layer (90% alcohol in PBS, 32 min): 0; HSV - CPE after 44 hours with the detecting cell-layer (96% alcohol in PBS, 2 min): 1; HSV - CPE after 44 hours with the detecting cell-layer (96% alcohol in PBS, 4 min): 1 and 0; HSV - CPE after 44 hours with the detecting cell-layer (96% alcohol in PBS, 8 min): 0; HSV - CPE after 44 hours with the detecting cell-layer (96% alcohol in PBS, 16 min): 0; HSV - CPE after 44 hours with the detecting cell-layer (96% alcohol in PBS, 32 min): 0; inactivation of herpes simplex virus (in words): able to inactivate herpes simplex virus even intracellular virus; HSV - CPE after 44 hours with the detecting cell-layer [1]: 0; HSV - CPE after 44 hours with the detecting cell-layer (alcohol undiluted, 4 min): 0; HSV - CPE after 44 hours with the detecting cell-layer (alcohol undiluted, 8 min): 0; HSV - CPE after 44 hours with the detecting cell-layer (alcohol undiluted, 16 min): 0; HSV - CPE after 44 hours with the detecting cell-layer (alcohol undiluted, 32 min): 0"
CC(C)O [Isopropanol],3 and 2,3 and 2,3,3 and 2,3,2,1,2 and 1,2 and 3,3,2,1,1 and 0,1,0 and 2,1,0 and 1,1,0 and 1,1 and 3,"HSV - CPE after 44 hours with the detecting cell-layer (90% alcohol in PBS, 2 min): 0 and 1; HSV - CPE after 44 hours with the detecting cell-layer (90% alcohol in PBS, 4 min): 0; HSV - CPE after 44 hours with the detecting cell-layer (90% alcohol in PBS, 8 min): 0; HSV - CPE after 44 hours with the detecting cell-layer (90% alcohol in PBS, 16 min): 0; HSV - CPE after 44 hours with the detecting cell-layer (90% alcohol in PBS, 32 min): 0; HSV - CPE after 44 hours with the detecting cell-layer (96% alcohol in PBS, 2 min): 0; HSV - CPE after 44 hours with the detecting cell-layer (96% alcohol in PBS, 4 min): 0; HSV - CPE after 44 hours with the detecting cell-layer (96% alcohol in PBS, 8 min): 0; HSV - CPE after 44 hours with the detecting cell-layer (96% alcohol in PBS, 16 min): 0; HSV - CPE after 44 hours with the detecting cell-layer (96% alcohol in PBS, 32 min): 0; inactivation of herpes simplex virus (in words): able to inactivate herpes simplex virus even intracellular virus; HSV - CPE after 44 hours with the detecting cell-layer [1]: 0; HSV - CPE after 44 hours with the detecting cell-layer (alcohol undiluted, 4 min): 0; HSV - CPE after 44 hours with the detecting cell-layer (alcohol undiluted, 8 min): 0; HSV - CPE after 44 hours with the detecting cell-layer (alcohol undiluted, 16 min): 0; HSV - CPE after 44 hours with the detecting cell-layer (alcohol undiluted, 32 min): 0"
CO [Methanol],1 and 0,1,1 and 2,2,1,1,0 and 1,1,0 and 1,1,1,1,1,1,0 and 1,1,0,1,0 and 1,1 and 0,"HSV - CPE after 44 hours with the detecting cell-layer (90% alcohol in PBS, 2 min): 0; HSV - CPE after 44 hours with the detecting cell-layer (90% alcohol in PBS, 4 min): 0; HSV - CPE after 44 hours with the detecting cell-layer (90% alcohol in PBS, 8 min): 0 and 1; HSV - CPE after 44 hours with the detecting cell-layer (90% alcohol in PBS, 16 min): 1; HSV - CPE after 44 hours with the detecting cell-layer (90% alcohol in PBS, 32 min): 1 and 0; HSV - CPE after 44 hours with the detecting cell-layer (96% alcohol in PBS, 2 min): 0; HSV - CPE after 44 hours with the detecting cell-layer (96% alcohol in PBS, 4 min): 0; HSV - CPE after 44 hours with the detecting cell-layer (96% alcohol in PBS, 8 min): 0; HSV - CPE after 44 hours with the detecting cell-layer (96% alcohol in PBS, 16 min): 0 and 1; HSV - CPE after 44 hours with the detecting cell-layer (96% alcohol in PBS, 32 min): 1 and 0; inactivation of herpes simplex virus (in words): able to inactivate herpes simplex virus even intracellular virus; HSV - CPE after 44 hours with the detecting cell-layer [1]: 0; HSV - CPE after 44 hours with the detecting cell-layer (alcohol undiluted, 4 min): 0; HSV - CPE after 44 hours with the detecting cell-layer (alcohol undiluted, 8 min): 0; HSV - CPE after 44 hours with the detecting cell-layer (alcohol undiluted, 16 min): 0; HSV - CPE after 44 hours with the detecting cell-layer (alcohol undiluted, 32 min): 0"
